≈ marks a conversion by molar mass, not a printed value. Read-outs that look alike come from different tables or passages of the source.
Legend:
Type in all cases: cell-based
M. suipneumoniae NB12 = assay: Anti-mycoplasmal MIC in vitro, Friis broth agarose (Table 1); conditions: Mesomycoplasma hyopneumoniae, NB12, 144 h
M. suipneumoniae MS 16 = assay: as above; conditions: Mesomycoplasma hyopneumoniae, MS16, 144 h
M. suipneumoniae LABER = assay: as above; conditions: Mesomycoplasma hyopneumoniae, 144 h
M. suipneumoniae TAM 6N = assay: as above; conditions: Mesomycoplasma hyopneumoniae, TAM6N, 144 h
[1] = system: M. suipneumoniae ATCC 25095; assay: as above; conditions: Mesomycoplasma hyopneumoniae, ATCC25095, 144 h
M. hyorhinis ATCC 25021 = assay: as above; conditions: Mesomycoplasma hyorhinis, ATCC25021, 144 h
[2] = system: M. hyosynoviae ATOC 25591; assay: as above; conditions: 144 h
M. gallisepticum S6 = assay: as above; conditions: Mycoplasmoides gallisepticum
[3] = system: Erysipelothrix rhusiopathiae NCTC 8163; assay: Veterinary bacteria MIC, Diagnostic Sensitivity Test Agar (Table 2)
Protocol: (§1) The values were determined using a two fold serial dilutions in Diagnostic Sensitivity Test Agar with an inoculum of 10^4 organisms and incubation for 18 hours at 37° C.

Past. multocida PA1 = assay: as above; conditions: Pasteurella multocida
Protocol: as §1

Past. multocida PA2 = assay: as above; conditions: Pasteurella multocida
Protocol: as §1

[4] = system: Strep. suis (group D) SPS11; assay: as above; conditions: Streptococcus suis
Protocol: as §1

Strep. uberis SPO1 = assay: as above; conditions: Streptococcus uberis
Protocol: as §1

Bacillus subtilis 6633 = assay: Human bacteria MIC, nutrient agar with chocolated horse blood (Table 3)
Protocol: (§2) The values were determined by serial dilutions in nutrient agar with 5% chocolated horse blood after incubations for 18 hours at 37° C.

[5] = system: Corynebacterium xerosis 9755; assay: as above
Protocol: as §2

E. Coli NCTC 10418 = assay: as above; conditions: Escherichia coli
Protocol: as §2

[6] = system: Haemophilus influenzae Q1; assay: as above
Protocol: as §2

K. aerogenes A = assay: as above; conditions: Klebsiella aerogenes
Protocol: as §2

P. mirabilis 889 = assay: as above
Protocol: as §2

[7] = system: Pasteurella multocida 1633; assay: as above
Protocol: as §2

[8] = system: Ps. aeruginosa NCTC 10662; assay: as above; conditions: Pseudomonas aeruginosa
Protocol: as §2

Sarcina lutea 8340 = assay: as above
Protocol: as §2

Staph. aureus Oxford = assay: as above; conditions: Staphylococcus aureus
Protocol: as §2

Staph. aureus Russell = assay: as above; conditions: Staphylococcus aureus
Protocol: as §2

Staph. aureus W2827 = assay: as above; conditions: Staphylococcus aureus
Protocol: as §2

Strep. faecalis 1 = assay: as above
Protocol: as §2

[9] = system: Strep. pyogenes R80/421-A; assay: as above; conditions: Streptococcus pyogenes
Protocol: as §2

[10] = Erysipelothrix rhusiopathiae, NCTC8163, 18 h
[11] = Corynebacterium xerosis, 9755, 18 h
[12] = Haemophilus influenzae, Q1, 18 h
[13] = Pasteurella multocida, 1633, 18 h

SMILES: C/C(=C\C(=O)OCc1ccc([N+](=O)[O-])c([N+](=O)[O-])c1)CC1OCC(CC2OC2C(C)C(C)O)C(O)C1O (stereo not drawn) [Example 9, 3,4-dinitrobenzyl monate A]
- MIC (M. suipneumoniae NB12): 0.25 µg/mL (≈ 0.477 µM)
- MIC (M. suipneumoniae MS 16): 0.25 µg/mL (≈ 0.477 µM)
- MIC (M. suipneumoniae LABER): 0.25 µg/mL (≈ 0.477 µM)
- MIC (M. suipneumoniae TAM 6N): 0.5 µg/mL (≈ 0.953 µM)
- MIC [1]: 0.25 µg/mL (≈ 0.477 µM)
- MIC (M. hyorhinis ATCC 25021): 0.25 µg/mL (≈ 0.477 µM)
- MIC [2]: 0.5 µg/mL (≈ 0.953 µM)
- MIC (M. gallisepticum S6; S6, 144 h): 5 µg/mL (≈ 9.53 µM)
- MIC [3, 10]: 40 µg/mL (≈ 76.3 µM)
- MIC (Past. multocida PA1; PA1, 18 h): 0.625 µg/mL (≈ 1.19 µM)
- MIC (Past. multocida PA2; PA2, 18 h): 0.156 µg/mL (≈ 0.297 µM)
- MIC ([4]; 18 h): 5 µg/mL (≈ 9.53 µM)
- MIC (Strep. uberis SPO1; SPO1, 18 h): 0.156 µg/mL (≈ 0.297 µM)
- MIC (Bacillus subtilis 6633; Bacillus subtilis, 6633, 18 h): 0.5 µg/mL (≈ 0.953 µM)
- MIC [5, 11]: > 100 µg/mL
- MIC (E. Coli NCTC 10418; NCTC10418, 18 h): 50 µg/mL (≈ 95.3 µM)
- MIC [6, 12]: 0.25 µg/mL (≈ 0.477 µM)
- MIC (K. aerogenes A; 18 h): 100 µg/mL (≈ 191 µM)
- MIC (P. mirabilis 889; Proteus mirabilis, 889, 18 h): 50 µg/mL (≈ 95.3 µM)
- MIC [7, 13]: 2.5 µg/mL (≈ 4.77 µM)
- MIC ([8]; NCTC10662, 18 h): > 100 µg/mL
- MIC (Sarcina lutea 8340; Micrococcus luteus, 8340, 18 h): > 100 µg/mL
- MIC (Staph. aureus Oxford; 18 h): 1 µg/mL (≈ 1.91 µM)
- MIC (Staph. aureus Russell; 18 h): 2.5 µg/mL (≈ 4.77 µM)
- MIC (Staph. aureus W2827; W2827, 18 h): 1 µg/mL (≈ 1.91 µM)
- MIC (Strep. faecalis 1; Enterococcus faecalis, 1, 18 h): 25 µg/mL (≈ 47.7 µM)
- MIC ([9]; R80/421A, 18 h): 0.25 µg/mL (≈ 0.477 µM)

SMILES: C/C(=C\C(=O)OCc1cc([N+](=O)[O-])cc([N+](=O)[O-])c1C)CC1OCC(CC2OC2C(C)C(C)O)C(O)C1O (stereo not drawn) [Example 7, 3,5-dinitro-2-methylbenzyl monate A]
- MIC (M. suipneumoniae NB12): 0.25 µg/mL (≈ 0.464 µM)
- MIC (M. suipneumoniae MS 16): 0.1 µg/mL (≈ 0.186 µM)
- MIC (M. suipneumoniae LABER): 0.1 µg/mL (≈ 0.186 µM)
- MIC (M. suipneumoniae TAM 6N): 0.25 µg/mL (≈ 0.464 µM)
- MIC [1]: 0.25 µg/mL (≈ 0.464 µM)
- MIC (M. hyorhinis ATCC 25021): 0.1 µg/mL (≈ 0.186 µM)
- MIC [2]: 0.1 µg/mL (≈ 0.186 µM)
- MIC (M. gallisepticum S6; S6, 144 h): 2.5 µg/mL (≈ 4.64 µM)
- MIC [3, 10]: 10 µg/mL (≈ 18.6 µM)
- MIC (Past. multocida PA1; PA1, 18 h): 2.5 µg/mL (≈ 4.64 µM)
- MIC (Past. multocida PA2; PA2, 18 h): 1.25 µg/mL (≈ 2.32 µM)
- MIC ([4]; 18 h): 10 µg/mL (≈ 18.6 µM)
- MIC (Strep. uberis SPO1; SPO1, 18 h): 0.156 µg/mL (≈ 0.29 µM)
- MIC (Bacillus subtilis 6633; Bacillus subtilis, 6633, 18 h): 1 µg/mL (≈ 1.86 µM)
- MIC [5, 11]: > 100 µg/mL
- MIC (E. Coli NCTC 10418; NCTC10418, 18 h): > 100 µg/mL
- MIC [6, 12]: 1 µg/mL (≈ 1.86 µM)
- MIC (K. aerogenes A; 18 h): > 100 µg/mL
- MIC (P. mirabilis 889; Proteus mirabilis, 889, 18 h): > 100 µg/mL
- MIC [7, 13]: 5 µg/mL (≈ 9.28 µM)
- MIC ([8]; NCTC10662, 18 h): > 100 µg/mL
- MIC (Sarcina lutea 8340; Micrococcus luteus, 8340, 18 h): > 100 µg/mL
- MIC (Staph. aureus Oxford; 18 h): 1 µg/mL (≈ 1.86 µM)
- MIC (Staph. aureus Russell; 18 h): 1 µg/mL (≈ 1.86 µM)
- MIC (Staph. aureus W2827; W2827, 18 h): 2.5 µg/mL (≈ 4.64 µM)
- MIC (Strep. faecalis 1; Enterococcus faecalis, 1, 18 h): > 100 µg/mL
- MIC ([9]; R80/421A, 18 h): 0.25 µg/mL (≈ 0.464 µM)

SMILES: C/C(=C\C(=O)OCc1cccc([N+](=O)[O-])c1C)CC1OCC(CC2OC2C(C)C(C)O)C(O)C1O (stereo not drawn) [Example 8, 2-methyl-3-nitrobenzyl monate A]
- MIC (M. suipneumoniae NB12): 0.1 µg/mL (≈ 0.203 µM)
- MIC (M. suipneumoniae MS 16): 0.1 µg/mL (≈ 0.203 µM)
- MIC (M. suipneumoniae LABER): 0.1 µg/mL (≈ 0.203 µM)
- MIC (M. suipneumoniae TAM 6N; M. suipneumoniae TAM 6N, in vitro, 6 days 37° C., read-out: MIC): 0.25 µg/mL (≈ 0.507 µM)
- MIC [1]: 0.1 µg/mL (≈ 0.203 µM)
- MIC (M. hyorhinis ATCC 25021): 0.1 µg/mL (≈ 0.203 µM)
- MIC ([2]; M. hyosynoviae ATOC 25591, in vitro, 6 days 37° C., read-out: MIC): 0.05 µg/mL (≈ 0.101 µM)
- MIC (M. gallisepticum S6; 144 h, M. gallisepticum S6, in vitro, 6 days 37° C., read-out: MIC): 5 µg/mL (≈ 10.1 µM)
- MIC ([3]; NCTC8163, Erysipelothrix rhusiopathiae NCTC 8163, DST Agar, 10^4 organisms, 18 hours 37° C., read-out: MIC): 20 µg/mL (≈ 40.5 µM)
- MIC (Past. multocida PA1; Past. multocida PA1, DST Agar, 10^4 organisms, 18 hours 37° C., read-out: MIC): 1.25 µg/mL (≈ 2.53 µM)
- MIC (Past. multocida PA2; Past. multocida PA2, DST Agar, 10^4 organisms, 18 hours 37° C., read-out: MIC): 1.25 µg/mL (≈ 2.53 µM)
- MIC ([4]; Strep. suis (group D) SPS11, DST Agar, 10^4 organisms, 18 hours 37° C., read-out: MIC): 5 µg/mL (≈ 10.1 µM)
- MIC (Strep. uberis SPO1; Strep. uberis SPO1, DST Agar, 10^4 organisms, 18 hours 37° C., read-out: MIC): 0.07 µg/mL (≈ 0.142 µM)
- MIC (Bacillus subtilis 6633; Bacillus subtilis 6633, nutrient agar 5% chocolated horse blood, 18 hours 37° C., read-out: MIC): 0.25 µg/mL (≈ 0.507 µM)
- MIC ([5]; Corynebacterium xerosis 9755, nutrient agar 5% chocolated horse blood, 18 hours 37° C., read-out: MIC): > 100 µg/mL
- MIC (E. Coli NCTC 10418; NCTC10418, E. coli NCTC 10418, nutrient agar 5% chocolated horse blood, 18 hours 37° C., read-out: MIC): > 100 µg/mL
- MIC ([6]; Haemophilus influenzae Q1, nutrient agar 5% chocolated horse blood, 18 hours 37° C., read-out: MIC): 0.5 µg/mL (≈ 1.01 µM)
- MIC (K. aerogenes A; K. aerogenes A, nutrient agar 5% chocolated horse blood, 18 hours 37° C., read-out: MIC): > 100 µg/mL
- MIC (P. mirabilis 889; Proteus mirabilis, P. mirabilis 889, nutrient agar 5% chocolated horse blood, 18 hours 37° C., read-out: MIC): > 100 µg/mL
- MIC ([7]; Pasteurella multocida 1633, nutrient agar 5% chocolated horse blood, 18 hours 37° C., read-out: MIC): 2.5 µg/mL (≈ 5.07 µM)
- MIC ([8]; NCTC10662, Ps. aeruginosa NCTC 10662, nutrient agar 5% chocolated horse blood, 18 hours 37° C., read-out: MIC): > 100 µg/mL
- MIC (Sarcina lutea 8340; Micrococcus luteus, Sarcina lutea 8340, nutrient agar 5% chocolated horse blood, 18 hours 37° C., read-out: MIC): > 100 µg/mL
- MIC (Staph. aureus Oxford; Staph. aureus Oxford, nutrient agar 5% chocolated horse blood, 18 hours 37° C., read-out: MIC): 2.5 µg/mL (≈ 5.07 µM)
- MIC (Staph. aureus Russell; Staph. aureus Russell, nutrient agar 5% chocolated horse blood, 18 hours 37° C., read-out: MIC): 2.5 µg/mL (≈ 5.07 µM)
- MIC (Staph. aureus W2827; Staph. aureus W2827, nutrient agar 5% chocolated horse blood, 18 hours 37° C., read-out: MIC): 2.5 µg/mL (≈ 5.07 µM)
- MIC (Strep. faecalis 1; Enterococcus faecalis, Strep. faecalis 1, nutrient agar 5% chocolated horse blood, 18 hours 37° C., read-out: MIC): 50 µg/mL (≈ 101 µM)
- MIC ([9]; Strep. pyogenes R80/421-A, nutrient agar 5% chocolated horse blood, 18 hours 37° C., read-out: MIC): 0.25 µg/mL (≈ 0.507 µM)
